From the NIST ThermoML archive (doi:10.1021/je9000922)
± gives the expanded uncertainty stated by the source.

Details: 355.65 K; Liquid

- vapor or sublimation pressure: 101.32 ± 3 kPa
SMILES: CC(C)O [propan-2-ol]
